Earlier results, collected in patent publication US9364476B2, “Methods of treating a Bruton's Tyrosine Kinase disease or disorder” (Celgene Avilomics Research, Inc., priority 2011, dated 2016).

What was measured:
B-cell = conditions: cited from earlier work
Btk = Btk (Homo sapiens, UniProt Q06187); conditions: enzymatic and cellular assays; cited from earlier work
[1] = target: Spleen tyrosine kinase (Syk) (Homo sapiens, UniProt P43405); conditions: DLBCL, CLL, and mantle cell lymphoma; cited from earlier work

Sequence of Btk (Q06187 whole entry, species assumed): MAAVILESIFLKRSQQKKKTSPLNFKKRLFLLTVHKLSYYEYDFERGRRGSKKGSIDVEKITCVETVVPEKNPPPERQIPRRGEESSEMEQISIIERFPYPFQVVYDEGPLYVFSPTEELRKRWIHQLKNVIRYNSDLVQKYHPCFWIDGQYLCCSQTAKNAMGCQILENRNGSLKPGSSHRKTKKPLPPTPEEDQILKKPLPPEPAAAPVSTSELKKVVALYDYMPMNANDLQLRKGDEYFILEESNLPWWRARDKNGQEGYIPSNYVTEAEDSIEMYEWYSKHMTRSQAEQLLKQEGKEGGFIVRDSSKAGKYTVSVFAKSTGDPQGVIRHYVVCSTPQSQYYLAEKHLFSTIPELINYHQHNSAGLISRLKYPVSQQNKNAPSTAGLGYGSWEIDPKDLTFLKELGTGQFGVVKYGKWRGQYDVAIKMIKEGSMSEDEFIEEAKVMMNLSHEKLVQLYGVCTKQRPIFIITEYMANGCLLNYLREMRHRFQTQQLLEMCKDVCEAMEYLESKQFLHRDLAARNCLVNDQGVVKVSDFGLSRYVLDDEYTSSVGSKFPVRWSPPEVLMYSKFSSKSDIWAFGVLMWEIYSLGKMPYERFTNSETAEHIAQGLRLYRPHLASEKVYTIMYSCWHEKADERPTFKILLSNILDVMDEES

SMILES | effect on B-cell proliferation and activation (B-cell) | mode of BTK inhibition (Btk) | clinical response [1]
C=CC(=O)Nc1cccc(Nc2nc(Nc3ccc(OCCOC)cc3)ncc2F)c1 [Compound 1, N-(3-(5-fluoro-2-(4-(2-methoxyethoxy)phenylamino)pyrimidin-4-ylamino)phenyl)acrylamide] | inhibit B-cell proliferation and activation | covalent, irreversible inhibition of BTK | 
COc1cc(Nc2ncc(F)c(Nc3ccc4c(n3)N(COP(=O)(O)O)C(=O)C(C)(C)O4)n2)cc(OC)c1OC [fostamatinib disodium] |  |  | clinical responses
